Results as given in patent US11267861B2, “Peptide-oligourea foldamer compounds and methods of their use” (UREKA SARL, priority 2016, dated 2022).
Converted amounts (≈) assume the structure as drawn. Numbered stars: 1 amine (or outer) side, 2 acyl side, 3 side chain; on linkers, the order of the positions; unused ones are H or OH. Peptide text beside a SMILES is read from it. * marks the point of attachment. X10 = C[C@@H](CN*)NC(=O)[C@@H](N)Cc1c[nH]cn1; X2 = C[C@@H](O)[C@H](N)C(=O)N[C@@H](CO)CN*; X3 = O=C(O)[C@@H]1CCCN1C(=O)NC[C@H](CO)N*; CO = O=C([*:1])[*:2]

Assays:
[1] = biological target: T1, Leucyl aminopeptidase (EC 3.4.11.1) (Sus scrofa, UniProt P28839); assay: Enzymatic degradation by leucyl aminopeptidase; format: in vitro ADME, porcine; conditions: compared to the native peptides
T1 construct: from porcine kidney (Sigma); chromatographically purified suspension; purchased Sigma; host or cells: porcine kidney
T1 sequence (P28839 1-519): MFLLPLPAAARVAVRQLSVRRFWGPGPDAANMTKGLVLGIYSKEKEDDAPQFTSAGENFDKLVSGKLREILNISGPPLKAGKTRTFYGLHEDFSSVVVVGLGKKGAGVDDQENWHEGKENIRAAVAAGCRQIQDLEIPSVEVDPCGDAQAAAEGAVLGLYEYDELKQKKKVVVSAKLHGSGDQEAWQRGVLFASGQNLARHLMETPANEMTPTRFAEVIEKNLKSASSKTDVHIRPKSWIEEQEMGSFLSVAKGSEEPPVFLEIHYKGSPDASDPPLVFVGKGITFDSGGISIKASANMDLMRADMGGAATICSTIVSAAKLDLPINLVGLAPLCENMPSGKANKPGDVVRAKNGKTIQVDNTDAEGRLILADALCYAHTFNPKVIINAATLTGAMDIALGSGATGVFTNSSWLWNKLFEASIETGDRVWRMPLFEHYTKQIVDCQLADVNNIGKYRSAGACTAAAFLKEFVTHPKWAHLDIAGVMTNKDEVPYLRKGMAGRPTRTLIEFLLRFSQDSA
Procedure: Enzymatic Degradation—Leucyl Aminopeptidase. Leucyl aminopeptidase (EC 3.4.11.1) from porcine kidney (Sigma); chromatographically purified suspension in 2.9 M (NH4)2SO4, 0.1 M Tris, 5 mM MgCl2 solution, pH 8.0; stock solution in PBS buffer (pH 7.2, 0.01 M). For each degradation experiment, stock solutions of the peptidic substrate and the enzyme were made using phosphate-buffered saline (PBS) buffer solution. […] The pH was adjusted either with NaOH (1 M) or with HCl (1 M) prior to use. A solution of the substrate in PBS buffer (pH 7.2, 0.01 M) and a solution of the required amount of enzyme, were mixed and incubated at 25° C. for 4 hours. Degradation was stopped with concentrated AcOH, and buffer solution was added so that the total volume reached 150 μL.
(§1) The resulting mixture was analyzed by reversed-phase HPLC. A mixture of CH3CN/H2O (0.1% TFA) was used as eluent. Gradients were 10% CH3CN to 100% CH3CN in 10 minutes. The flow rate, for all separations, was 1 mL·min^−1.

[2] = biological target: T2, Carboxypeptidase A (EC 3.4.17.1) (Bos taurus, UniProt P00730); assay: Enzymatic degradation by carboxypeptidase A; format: in vitro ADME, bovine; conditions: same results = more stable than the native peptides
T2 construct: from bovine pancreas (Fluka), milky suspension; purchased Fluka; host or cells: bovine pancreas
T2 sequence (P00730 111-419): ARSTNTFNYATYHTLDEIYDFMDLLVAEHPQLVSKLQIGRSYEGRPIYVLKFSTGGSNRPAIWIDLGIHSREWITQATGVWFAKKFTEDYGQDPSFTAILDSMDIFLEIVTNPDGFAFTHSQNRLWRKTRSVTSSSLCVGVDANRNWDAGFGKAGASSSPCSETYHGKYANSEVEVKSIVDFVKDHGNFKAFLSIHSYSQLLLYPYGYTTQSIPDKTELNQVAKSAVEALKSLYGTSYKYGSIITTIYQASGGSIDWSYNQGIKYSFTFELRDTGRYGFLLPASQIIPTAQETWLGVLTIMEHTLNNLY
Procedure: Enzymatic Degradation—Carboxypeptidase A. Carboxypeptidase A (EC 3.4.17.1) from bovine pancreas (Fluka), milky suspension, stock solution in PBS buffer (pH 7.5, 0.01 M). For each degradation experiment, stock solutions of the peptidic substrate and the enzyme were made using phosphate-buffered saline (PBS) buffer solution. The enzyme concentrations of the stock solutions were selected such that the standard substrates were totally degraded after a maximum of 15 min (ratio 2[enzyme]:100[substrate]). PBS buffer solution (10 mM sodium phosphate, 0.14 M NaCl) was prepared as follows: Solution A (4.75 mL of 0.2 M NaH2PO4.H2O), solution B (20.25 mL of 0.2 M Na2HPO4.H2O), NaCl (4.5 g) and H2O (25 mL) were stirred for 15 min at room temperature and diluted tenfold with H2O. The pH was adjusted either with NaOH (1 M) or with HCl (1 M) prior to use. A solution of the substrate in PBS buffer (pH 7.5, 0.01 M) and a solution of the required amount of enzyme, were mixed and incubated at 25° C. for 4 hours. Degradation was stopped with concentrated AcOH, and buffer solution was added so that the total volume reached 150 μL.
as §1

human glucagon receptor = biological target: T3, human glucagon receptor (Homo sapiens, UniProt P47871); assay: Glucagon functional assay: agonist activity by cAMP production (HTRF) in transfected CHO cells; format: cell-based; conditions: cAMP production, transfected CHO cells, 10 minutes at 37° C.
T3 construct: expressed in transfected cells; host or cells: CHO cells
Procedure: Functional Assay to Examine Bioactivity of Glucagon Receptor Agonists. Evaluation of the agonist activity of compounds at the human glucagon receptor expressed in transfected CHO cells was examined by measuring their effects on cAMP production using the HTRF detection method. […] For stimulated control measurement, separate assay wells contain 100 nM glucagon were utilized.
(§2) Following incubation, the cells were lysed and the fluorescence acceptor (D2-labeled cAMP) and fluorescence donor (anti-cAMP antibody labeled with europium cryptate) were added. […] The results are expressed as a percent of the control response to 100 nM glucagon. The standard reference agonist is glucagon, which was tested in each experiment at several concentrations to generate a concentration-response curve from which its EC50 value was calculated.
(§3) HTRF (Homogeneous Time-Resolved Fluorescence) principle. The HTRF technology is based on time resolved fluorescence energy transfer (TR-FRET), which occurs between long-lived fluorophore Europium or Terbium Cryptates, and EuK or Tb respectively, as a donor and the allophycocyanin XL665, d2 or Red as acceptor. Many compounds and proteins present in biological fluids or serum are naturally fluorescent, and the use of conventional, prompt fluorescence leads to serious limitations in assay sensitivity. The use of long-lived fluorophore combined with time-resolved detection (a delay between excitation and emission detection) minimizes prompt fluorescence interference.

[3] = Solubility of glucagon analogs (UV absorbance); format: physicochemical; conditions: for solubility: 0.01M HCl solution adjusted to pH 7 with Na2HPO4, pH 7, pH adjusted to 7 with Na2HPO4, incubated overnight at 4° C.; for ratio (solubility relative to reference compound 16): relative to compound 16;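 as to all read-outs here: peptide stock at 3 mg/ml in 0.01 M HCl, absorbance at 280 nm read before neutralization and again on the diluted supernatant after centrifugation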
Procedure: A solution of 3 mg/ml of glucagon (or analog) was prepared in a 0.01M HCl solution. Then 0.1 ml of the stock solution was diluted to 1 ml with HCl (0.01M) and the UV absorbance measured (to 280 nm) with nanodrop UV spectrometer. The pH of the remaining stock solution was adjusted to 7 using Na2HPO4, and the solution was incubated overnight at 4° C. The solution was then centrifuged three times (5 minutes, 4000 rotations per minute), 0.1 ml of the supernatant was removed and diluted to 1 ml with HCl solution (0.01M).
The final UV absorbance was measured.

[4] = in vivo; cited from earlier work
mouse GLP-1 receptor = biological target: T4, mouse GLP-1 receptor (Mus musculus, UniProt O35659); assay: GLP-1 functional assay: agonist activity by cAMP production (HTRF) in βTC6 cells; format: cell-based; conditions: read-out: EC50 (nM), GLP-1 Functional Assay
T4 construct: mouse GLP-1 receptor endogenously expressed in βTC6 cells; endogenous in cells; host or cells: βTC6 cells
T4 sequence (O35659 22-463): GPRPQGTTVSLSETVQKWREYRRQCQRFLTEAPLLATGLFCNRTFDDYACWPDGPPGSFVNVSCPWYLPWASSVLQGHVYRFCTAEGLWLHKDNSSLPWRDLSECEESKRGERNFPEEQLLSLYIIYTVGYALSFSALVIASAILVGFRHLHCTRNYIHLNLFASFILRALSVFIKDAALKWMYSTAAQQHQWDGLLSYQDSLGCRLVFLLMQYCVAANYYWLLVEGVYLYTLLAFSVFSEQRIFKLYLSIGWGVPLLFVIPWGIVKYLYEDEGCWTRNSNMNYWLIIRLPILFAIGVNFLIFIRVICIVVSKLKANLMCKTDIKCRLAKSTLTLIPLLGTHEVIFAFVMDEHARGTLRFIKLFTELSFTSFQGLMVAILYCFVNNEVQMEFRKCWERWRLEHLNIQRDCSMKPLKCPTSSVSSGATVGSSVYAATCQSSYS
Procedure: For stimulated control measurement, separate assay wells contain 10 nM GLP-1(7-37) were utilized.
as §2, with “10” for “100”, “GLP-1(7-37).” for “glucagon.”, “GLP-1(7-37),” for “glucagon,”
as §3

T3 sequence (P47871 26-477): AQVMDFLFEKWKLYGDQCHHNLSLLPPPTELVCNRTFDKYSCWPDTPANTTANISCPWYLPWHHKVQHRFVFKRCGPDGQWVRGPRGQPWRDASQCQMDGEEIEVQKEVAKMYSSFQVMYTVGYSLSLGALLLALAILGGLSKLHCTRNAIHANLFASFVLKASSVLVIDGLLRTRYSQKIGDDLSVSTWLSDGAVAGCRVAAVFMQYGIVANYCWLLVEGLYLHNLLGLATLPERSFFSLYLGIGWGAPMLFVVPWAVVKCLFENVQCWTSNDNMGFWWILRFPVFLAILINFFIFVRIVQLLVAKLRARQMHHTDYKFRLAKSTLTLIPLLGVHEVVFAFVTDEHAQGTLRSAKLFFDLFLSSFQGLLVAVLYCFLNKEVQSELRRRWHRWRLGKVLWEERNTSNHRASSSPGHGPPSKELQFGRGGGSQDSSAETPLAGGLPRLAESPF

With `CCCC[C@H](NC(=O)[C@H](CC(C)C)NC(=O)[C@H](Cc1c[nH]c2ccccc12)NC(=O)[C@H](CCC(N)=O)NC(=O)[C@@H](NC(=O)[C@H](Cc1ccccc1)NC(=O)[C@H](CC(=O)O)NC(=O)[C@H](CCC(N)=O)NC(=O)[C@H](C)NC(=O)[C@H](CCCNC(=N)N)NC(=O)[C@H](CCCNC(=N)N)NC(=O)[C@H](CO)NC(=O)[C@H](CC(=O)O)NC(=O)[C@H](CC(C)C)NC(=O)[C@H](Cc1ccc(O)cc1)NC(=O)[C@H](CCCCN)NC(=O)[C@H](CO)NC(=O)[C@H](Cc1ccc(O)cc1)NC(=O)[C@H](CC(=O)O)NC(=O)[C@H](CO)NC(=O)[C@@H](NC(=O)[C@H](Cc1ccccc1)NC(=O)[C@@H](NC(=O)CNC(=O)[C@H](CCC(N)=O)NC(=O)[C@H](CO)NC(=O)NC[C@@H](N)Cc1c[nH]cn1)[C@@H](C)O)[C@@H](C)O)C(C)C)C(=O)N[C@@H](CC(N)=O)C(=O)N[C@H](C(=O)O)[C@@H](C)O` [Compound 17] as the compound, how does the “stability (half-life) with leucyl aminopeptidase compared to native peptides” value [1] read?
Its value is “more stable than the native peptides”.

With `CCCC[C@H](NC(=O)[C@H](CC(C)C)NC(=O)[C@H](Cc1c[nH]c2ccccc12)NC(=O)[C@H](CCC(N)=O)NC(=O)[C@@H](NC(=O)[C@H](Cc1ccccc1)NC(=O)[C@H](CC(=O)O)NC(=O)[C@H](CCC(N)=O)NC(=O)[C@H](C)NC(=O)[C@H](CCCNC(=N)N)NC(=O)[C@H](CCCNC(=N)N)NC(=O)[C@H](CO)NC(=O)[C@H](CC(=O)O)NC(=O)[C@H](CC(C)C)NC(=O)[C@H](Cc1ccc(O)cc1)NC(=O)[C@H](CCCCN)NC(=O)[C@H](CO)NC(=O)[C@H](Cc1ccc(O)cc1)NC(=O)[C@H](CC(=O)O)NC(=O)[C@H](CO)NC(=O)[C@@H](NC(=O)[C@H](Cc1ccccc1)NC(=O)[C@@H](NC(=O)CNC(=O)[C@H](CCC(N)=O)NC(=O)NC[C@H](CO)NC(=O)[C@@H](N)Cc1c[nH]cn1)[C@@H](C)O)[C@@H](C)O)C(C)C)C(=O)N[C@@H](CC(N)=O)C(=O)N[C@H](C(=O)O)[C@@H](C)O` [Compound 18] as the compound, how does the “stability (half-life) with leucyl aminopeptidase compared to native peptides” value [1] read?
Its value is “more stable than the native peptides”.

With `CC(C)C[C@H](NC(=O)[C@H](C)NC(=O)[C@H](Cc1c[nH]c2ccccc12)NC(=O)[C@H](Cc1ccc(O)cc1)NC(=O)[C@H](CCC(=O)O)NC(=O)[C@H](C)NC(=O)[C@H](Cc1ccccc1)NC(=O)NC[C@H](CO)NC(=O)[C@@H](N)[C@@H](C)O)C(=O)N[C@@H](CC(C)C)C(=O)N[C@@H](CO)CNC(=O)N1CCC[C@H]1C(=O)O` [Compound 24] ({X2-CO}-FAEYWALL-X3) as the compound, how does the “stability with carboxipeptidase A compared to native peptides” value [2] read?
Its value is “same results”.

For `CCCC[C@H](NC(=O)[C@H](CC(C)C)NC(=O)[C@H](Cc1c[nH]c2ccccc12)NC(=O)NC[C@H](CCC(N)=O)NC(=O)[C@@H](NC(=O)[C@H](Cc1ccccc1)NC(=O)[C@H](CC(=O)O)NC(=O)[C@H](CCC(N)=O)NC(=O)[C@H](C)NC(=O)[C@H](CCCNC(=N)N)NC(=O)[C@H](CCCNC(=N)N)NC(=O)[C@H](CO)NC(=O)[C@H](CC(=O)O)NC(=O)[C@H](CC(C)C)NC(=O)[C@H](Cc1ccc(O)cc1)NC(=O)[C@H](CCCCN)NC(=O)[C@H](CO)NC(=O)[C@H](Cc1ccc(O)cc1)NC(=O)[C@H](CC(=O)O)NC(=O)[C@H](CO)NC(=O)[C@@H](NC(=O)[C@H](Cc1ccccc1)NC(=O)[C@@H](NC(=O)CNC(=O)[C@H](CCC(N)=O)NC(=O)[C@H](CO)NC(=O)[C@@H](N)Cc1c[nH]cn1)[C@@H](C)O)[C@@H](C)O)C(C)C)C(=O)N[C@@H](CC(N)=O)C(=O)N[C@H](C(=O)O)[C@@H](C)O` [Compound 64], which EC50 (human glucagon receptor) is on record?
The EC50 was 0.16 nM.

What about the solubility [3] of the same compound?
Its solubility is 940 µg/mL (≈ 269 µM).

What about the “ratio (solubility relative to reference compound 16)” value [3] of the same compound?
Its value is 3.7.

What does the source list for `CCCC[C@H](NC(=O)[C@H](CC(C)C)NC(=O)NC[C@H](Cc1c[nH]c2ccccc12)NC(=O)[C@H](CCC(N)=O)NC(=O)[C@@H](NC(=O)[C@H](Cc1ccccc1)NC(=O)[C@H](CC(=O)O)NC(=O)[C@H](CCC(N)=O)NC(=O)[C@H](C)NC(=O)[C@H](CCCNC(=N)N)NC(=O)[C@H](CCCNC(=N)N)NC(=O)[C@H](CO)NC(=O)[C@H](CC(=O)O)NC(=O)[C@H](CC(C)C)NC(=O)[C@H](Cc1ccc(O)cc1)NC(=O)[C@H](CCCCN)NC(=O)[C@H](CO)NC(=O)[C@H](Cc1ccc(O)cc1)NC(=O)[C@H](CC(=O)O)NC(=O)[C@H](CO)NC(=O)[C@@H](NC(=O)[C@H](Cc1ccccc1)NC(=O)[C@@H](NC(=O)CNC(=O)[C@H](CCC(N)=O)NC(=O)[C@H](CO)NC(=O)[C@@H](N)Cc1c[nH]cn1)[C@@H](C)O)[C@@H](C)O)C(C)C)C(=O)N[C@@H](CC(N)=O)C(=O)N[C@H](C(=O)O)[C@@H](C)O` [Compound 65]?
EC50 (human glucagon receptor): 1.5 nM; solubility [3]: 850 µg/mL (≈ 243 µM); ratio (solubility relative to reference compound 16) [3]: 3.4

With Albiglutide as the compound, how does the half-life [4] read?
Its half-life is “four to seven”.

For “{X10-CO}-EGTFTSDLSKQLEEEAVRLFIEWLKNGGPSSGAPPSKKKKKK-NH2 [Compound 67]”, which EC50 (mouse GLP-1 receptor) is on record?
The EC50 was 0.082 nM.
